“Also recorded” adds a separate entry of the source.
Tests used:
[1] = tested on: NS1; assay: NS1 antigenemia (Platelia NS1 assay) in adult dengue patients, randomized placebo-controlled trial; assay type: in vivo, human; settings: Kaplan-Meier estimate
Method: Randomization to treatment group was by computer-generated randomization sequencing in blocks of 2. Balapiravir was formulated in a 500-mg film-coated tablet. The placebo consisted of an identical looking tablet containing excipient only. All balapiravir and placebo tablets were provided by F. Hoffmann-La Roche. Patients in cohort 1 (n = 20) received 1500 mg of balapiravir or an identical placebo orally every 12 hours for 5 days (10 doses). The decision to dose escalate (to 3000 mg) was made after review of the partially unblinded group mean clinical and laboratory data acquired from patients in cohort 1. Patients in cohort 2 (n = 44) received 3000 mg of balapiravir or placebo orally twice a day for 5 days (10 doses).

[2] = tested on: DENV; assay: Plasma viremia (RT-PCR) in adult dengue patients, randomized placebo-controlled trial; assay type: in vivo, human; settings: for Median time to first viremia level of <1000 copies/mL (IQR): Kaplan-Meier estimate, inpatient period; for AUC viremia, Mean / AUC viremia, Median (IQR): hour 0 to hour 168
Method: Plasma samples were collected for virological and immunological investigations every 12 hours, beginning immediately before commencement of treatment, during the next 6 study days and on one occasion on study day 7 and day 14 (virological markers) or day 7 and day 28 (immunological markers). Viremia was measured using a validated, internally controlled reverse-transcription polymerase chain reaction assay in a Good Clinical Laboratory Practice environment. The limit of detection was 357 copies/mL for DENV-1, 72 copies/mL for DENV-2, 357 copies/mL for DENV-3, and 720 copies/mL for DENV-4. The presence of NS1 in plasma was determined using the Platelia NS1 assay (Bio-Rad) and was performed according to the manufacturer's instructions. Plasma cytokine levels (interleukin 1β [IL-1β], IL-2, IL-4, IL-5, IL-6, IL-10, IL-12p70, IL-13, interferon γ [IFN-γ], and tumor necrosis factor α [TNF-α]) were measured using a Bio-Plex human cytokine assay (Bio-Rad) and a multiplex array reader (Luminex Systems, Bio-Plex workstation from Bio-Rad Laboratories) according to the manufacturer's instructions. Briefly, 50-μL plasma samples were incubated with monoclonal antibody coupled beads. Complexes were washed twice, then incubated with biotinylated detection antibodies and, finally, labeled with streptavidin-phycoerythrin prior to analysis. Cytokine concentrations in samples were calculated by use of recombinant cytokines as standards and software provided by the manufacturer (Bio-Plex Manager). All research samples (for pharmacology, virology, and immunology) were collected and processed in the laboratory within 1 hour of venupuncture. All virological and immunological measurements and analyses were performed by analysts who were blind to the treatment assignment
Key viremia endpoints of the study were as follows: area under the log-transformed viremia curve (AUC) from first dose to the end of study day 7 (study hour 168), calculated on the basis of the trapezoidal rule with values below the limit of detection replaced by half of the detection limit; time to first viremia level of <1000 copies/mL until study day 7; and time to the first negative NS1 test result. Other predefined key endpoints included fever clearance time, defined as the time from the start of treatment to the start of the first 48-hour period during which axillary temperature remained <37.5°C; maximum hematocrit level; maximum percentage increase of hematocrit level from baseline; platelet count nadir; and lowest recorded quality of life score.
Time to event endpoints were compared between treatment groups on the basis of Cox regression and continuous endpoints on the basis of linear regression. Analyses were adjusted for the predose value of the respective endpoint; viremia and NS1 endpoints were additionally adjusted for dengue serotype. For all endpoints, we report P values of a trend test for a dose-response relationship with treatment entered as a continuous variable with values 0 (placebo), 1 (low-dose), and 2 (high-dose) into the regression model.

[3] = tested on: HCV; settings: cited from earlier work
[4] = tested on: DENV-2; assay: Inhibition of DENV replication in Huh-7 cells, viral RNA by quantitative real time PCR; assay type: cell-based, dengue virus; settings: Dengue virus, DENV2, Huh-7, 48 h, mean ± SD of 3 experiments
Method: ^a Each experiment was done in duplicate. The mean and standard deviation shown represent 3 independent (different date) experiments for each virus tested. Huh-7 cells were plated in 96-well plate at 10,000 cells/well in DMEM containing 10 % FBS in 100 μl volume one day prior to set up of the assay. The following day the medium was aspirated off and diluted virus at a multiplicity of infection of 0.5 or media was added to the assay and control wells, respectively. The virus was allowed to attach to the cells for two hours at 37°C in a humidified 5% C02 atmosphere while the dilutions of the test molecule were prepared. Test molecules (or medium as a control) were added after aspiration of the virus-containing media 2 hours post-infection in 3-fold dilutions at a final DMSO concentration of 1%. After 48 hrs, cells were washed and cellular RNA were isolated. In this study, we used a quantitative real time PCR method to quantitate dengue viral RNA in Huh-7 in the presence of inhibitors. Viral RNA and endogenous 18S rRNA control (Applied Bio System) was quantified by a real time PCR assay using the following primers. Dengue Reverse (Common to all the serotypes): 5’-[…]-3’, Dengue forward serotype 1: 5’-[…]-3’, Dengue forward serotype 2 or 3: 5’-[…]-3’, Dengue forward serotype 4: 5’-[…] -3’ and Dengue probe (Common to all the serotypes): 5'-/56-FAM/[…]/3BHQ_1/-3'. Taqman was performed in duplicate. IC50 was obtained using the following calculations. First ΔCt was calculated by subtracting 18S rRNA CT value from dengue RNA CT value. ΔCts from duplicate taqman assay were averaged. Then ΔΔCt was obtained by subtracting the average ΔCt of non-treated sample from the treated sample average ΔCt. Relative quantification was calculated using the following formula. Relative quantification = 2^-averageΔΔCT. The 50% inhibitory concentrations (EC50) were calculated using the sigmoidal dose-response model in Microsoft XLfit.

[5] = 4500 mg twice daily of balapiravir, HCV-infected persons, cited from earlier work
[6] = High-dose (3000 mg twice a day, 5 days), n = 22
[7] = Low-dose (1500 mg twice a day, 5 days), n = 10

SMILES: CC(C)C(=O)OC[C@@]1(N=[N+]=[N-])O[C@@H](n2ccc(N)nc2=O)[C@H](OC(=O)C(C)C)[C@@H]1OC(=O)C(C)C [Balapiravir]
- Median time to first negative NS1 test result (IQR) [1, 6]: 4 (3–6) d
- Median time to first negative NS1 test result (IQR) [1, 7]: 3 (3–14) d
- effect on virological markers (time to clearance of viremia, time to clearance of NS1 antigenemia, AUC) ([2]; 1500 mg or 3000 mg twice daily for 5 days versus placebo): did not measurably alter; also recorded: no measurable effect
- Median time to first viremia level of <1000 copies/mL (IQR) [2, 6]: 4 (3–5) d
- AUC viremia, Mean [2, 6]: 32.56 log10 copies/mL × d
- AUC viremia, Median (IQR) [2, 6]: 31.98 (27.60–34.98) log10 copies/mL × d
- Median time to first viremia level of <1000 copies/mL (IQR) [2, 7]: 5 (4, NA) d
- AUC viremia, Mean [2, 7]: 34.49 log10 copies/mL × d
- AUC viremia, Median (IQR) [2, 7]: 29.63 (27.41–39.86) log10 copies/mL × d
- antiviral effect (reduction in plasma HCV RNA level) ([3]; 500 mg twice daily): no significant antiviral effect
- clinical safety in extended courses ([3]; extended courses (2–3 months) in conjunction with pegylated interferon and ribavirin, HCV infection): clinical safety signals were detected
- effect on plasma HCV levels ([3]; monotherapy twice per day for 14 days, chronic HCV): reduced plasma HCV levels in a dose- and time-dependent manner
- tolerability ([3]; monotherapy twice per day for 14 days, doses up to 3000 mg, adult male patients): well-tolerated
- IC50 ([4]; DENV-2 strain 32/0102 (clinical isolate), Huh-7 cells): 3 ± 0.5 µM
- IC50 ([4]; DENV-2 strain 32/0140 (clinical isolate), Huh-7 cells): 1.9 ± 0.7 µM
- IC50 ([4]; DENV-2 strain 33/0051 (clinical isolate), Huh-7 cells): 2 ± 0.2 µM
- IC50 ([4]; DENV-2 strain 33/0178 (clinical isolate), Huh-7 cells): 2 ± 0.6 µM
- IC50 ([4]; DENV-2 strain Th36, Huh-7 cells): 4.6 ± 0.4 µM
- mean Cmin [5]: 21 µM
- Cmax ([5]; read-out: mean Cmax): 88 µM

Source: article PMC3610419, “A Randomized, Double-Blind Placebo Controlled Trial of Balapiravir, a Polymerase Inhibitor, in Adult Dengue Patients” (The Journal of Infectious Diseases, 2012)
